Test: Extraction of organic standards from spiked JSC-1 rock with aqueous polysorbate 80 solution, GC-MS
Assay type: physicochemical
Settings: ultrasonication 20 minutes
Description: JSC-1, a Martian and lunar analogue (McKay et al. (1993) JSC-1: A new lunar regolith simulant. Lunar and Planetary Institute Conference Abstracts), was spiked with various hydrocarbon compound classes (Table 1 below). All are known to be soluble in organic solvents, and are considered mostly insoluble in water with the exception of atrazine. 1 ml of a mixture of 10.0 ng ml^−1 hydrocarbon standards were spiked on to 1 g of rock, the concentrations of each non-aromatic standard amounted to 10.0 ng g^−1 rock (10 ppb). Terphenyl (an aromatic compound) was used as a second quantitation standard, added just before analysis in order to establish extraction efficiencies for the JSC-1 rock.
1 g samples of spiked JSC-1 rock were placed in test tubes, with 3 ml solvent and the mixture subjected to ultrasonication (20 minutes). The solvent was an aqueous surfactant solution containing polysorbate 80 in various amounts (either 1.5 g/L or 2.5 g/L), as set out in Table 1 below. The surfactant was dissolved either in water that contains 20% methanol (referred to in Table 1 as “w MeOH”) or pure water (“w/o MeOH”). After sonication the mixture was centrifuged (2500 rpm×10 min) and the supernatant pipetted into a test tube. A liquid/liquid extraction was then performed with dichloromethane, the dichloromethane was then blown down via nitrogen to 1 ml ready for further analysis by gas chromatography-mass spectrometry.
The organic constituents of extracts were separated on an Agilent technologies 6890N gas chromatograph. Extracts were dissolved in 1 ml dichloromethane and 1 μl was introduced via splitless injection into a HP-5 (0.25 mm×30 m×[…]) capillary column in a helium carrier gas. The column oven was operated with a temperature programme starting at 50° C. for 1 min followed by a ramp of 5° C. min−1 until 310° C. where the temperature was held for 20 min. Individual compounds were identified by introducing the column effluent into an Agilent technologies 5973 inert mass selective detector operated with a 12 min solvent delay and a scan range of m/z 50-550.
The extraction efficiency is measured as the percentage of the organic compounds that are extracted as compared to the amount originally present in the rock. […] Other variables include temperature and pressure. As can also be seen from Table 1, the optimum recovery appears to take place between about 0.5 an 3 grams per litre of polysorbate 80, which corresponds to 40 to 230 times the cmc of polysorbate 80.

[1] = polysorbate 80 1.5 g/L, with MeOH (water containing 20% methanol)
[2] = polysorbate 80 1.5 g/L, without MeOH (pure water)
[3] = polysorbate 80 2.5 g/L, with MeOH (water containing 20% methanol)
[4] = polysorbate 80 2.5 g/L, without MeOH (pure water)

Row | SMILES | Extraction efficiency [1] [%] | Extraction efficiency [2] [%] | Extraction efficiency [3] [%] | Extraction efficiency [4] [%]
1 | c1ccc2cc3ccccc3cc2c1 [Anthracene] | 0 | 0 | 5.2 | 22.86
2 | c1ccc2c(c1)c1cccc3ccc4cccc2c4c31 [Benzo(e)pyrene] | 2.38 | 0 | 20.33 | 30.55
3 | CCNc1nc(Cl)nc(NC(C)C)n1 [Atrazine] | 7.35 | 12.6 | 5.4 | 5.62
4 | CC[C@H](/C=C/[C@@H](C)[C@H]1CC[C@H]2[C@@H]3CC=C4C[C@@H](O)CC[C@]4(C)[C@H]3CC[C@]12C)C(C)C [Stigmasterol] | 0 | 0 | 3.06 | 10.88

Second part, the compound after the results:

Row | Extraction efficiency [1] [%] | Extraction efficiency [2] [%] | Extraction efficiency [3] [%] | Extraction efficiency [4] [%] | SMILES
5 | 6.11 | 19.71 | 0.58 | 9.11 | CC(C)=CCC/C(C)=C/CC/C(C)=C/CC/C=C(\C)CC/C=C(\C)CCC=C(C)C [Squalene]
6 | 8.91 | 29.08 | 0.93 | 10.7 | CCC(C)CCCC(C)CCCC(C)CCCC(C)C (stereo not shown) [Phytane]
7 | 4.21 | 14.2 | 0.54 | 0.73 | CCCCCCCCCCCCCCCC [Hexadecane]

Source: US20120132594A1, “AQUEOUS SOLVENTS FOR HYDROCARBONS AND OTHER HYDROPHOBIC COMPOUNDS” (IMPERIAL INNOVATIONS LIMITED, priority 2009, published 2012)
